# Data published in patent US20120010179A1, “Methods of using a thiazole derivative” (priority 2006, published 2012).
# System: patients with COPD
# Assay: Pulmonary function tests (spirometry FEV1, FVC), tetomilast with inhaled albuterol, crossover study (Example 1)
# Assay type: in vivo, human
# Conditions: for Estimated Treatment Effect, change from baseline in FEV1 (tetomilast versus placebo) / Estimated Treatment Effect, change from baseline in FVC (tetomilast versus placebo) / LS Mean change from baseline in FEV1 (repeated measures ANOVA) / LS Mean change from baseline in FVC (repeated measures ANOVA) / Mean (SD) change from baseline in FEV1 / Mean (SD) change from baseline in FVC: steady-state (predose) baseline, Day 8/23; for Estimated Treatment Effect, change from baseline in FEV1 (tetomilast versus placebo) / Estimated Treatment Effect, change from baseline in FVC (tetomilast versus placebo): both with inhaled albuterol; for LS Mean change from baseline in FEV1 (repeated measures ANOVA) / LS Mean change from baseline in FVC (repeated measures ANOVA) / Mean (SD) change from baseline in FEV1 / Mean (SD) change from baseline in FVC: tetomilast 50 mg QD + inhaled albuterol
# Description: Pulmonary function tests were conducted throughout the study to monitor the subjects' respiratory status. Flow volume curves were collected via spirometry. Combivent® (Boehringer Ingleheim Pharmaceuticals, Inc., Ridgefield Conn.), which was used for short-acting rescues as needed throughout the studies described below, was withheld for 6 hours prior to any spirometric testing. Spirometry testing was performed at screening, baseline (Day 0), and at specific times during the treatment period. Each subject could have up to 5 spirometric readings at any study time point. Spirometric readings were performed using equipment from the central provider, Quantum Research, Inc. (Louisville, Colo.). All spirometry readings were recorded and sent to Quantum Research, Inc. for analysis
# For the spirometric readings, the best effort was reported as follows. The highest acceptable forced expiratory volume in one second (FEV1) value was selected as the “best” of the given test session. If two or more FEV1 values were tied as highest, the sum of FEV1 and forced vital capacity (FVC) for those efforts was used. If both conditions were equal between the two efforts, the values reported were taken from the effort that occurred first, chronologically, based on date and time of the effort.
# This study was a multicenter, randomized, double-blind, placebo-controlled, crossover, multiple dose, outpatient study in 27 patients with COPD. All subjects underwent a 28-day washout from inhaled corticosteroids and/or long-acting bronchodilators and/or continuous oxygen therapy (≧16 hours per day) and a 7-day washout from oral beta2-agonists and/or oral theophylline salts prior to baseline. Randomized subjects received an 8-day administration of oral placebo or tetomilast 50 mg oral dose (2×25 mg tablets) once daily (QD). On study Day 8, four consecutive doses of inhaled albuterol (90 μg albuterol base per puff) were given via a metered dose inhaler (MDI) and holding chamber (Ventolin®, GlaxoSmithKline, Research Triangle Park, N.C.), one dose every 30 minutes over the course of 90 minutes at doses of 90 μg+90 μg+180 μg+360 μg for a total dose of 720 μg (albuterol base) or 8 puffs.
# Subjects entered a 7-day washout period (study days 9 through 15) and were then crossed over to the alternate treatment arm (placebo or tetomilast 50 mg oral dose). On study [0105] Day 23, the inhaled albuterol multiple dosing was repeated.
# On Days 1-6 and 17-21, subjects were instructed to take their oral study medication (placebo or tetomilast 50 mg) QD with 8 ounces of water immediately before breakfast. Subjects assigned to the placebo arm received two placebo tablets QD. On Days 7, 8, 16, 22, and 23, subjects took their oral medication (placebo or tetomilast 50 mg) at the clinic in the presence of the study staff.
# Combivent® inhalation aerosol use was allowed for short-acting rescue as needed throughout the study except on study days where PK samples were collected, on days when the multiple doses of inhaled albuterol were administered in the clinic, and/or on days when spirometry testing was performed. On all study days where PK samples were collected, Combivent® was withheld 6 hours prior to the PK draw. Additionally, on study Days 8 and 23 (when the multiple doses of inhaled albuterol were administered in the clinic), Combivent® was withheld 6 hours prior to PK assessment and throughout the duration of the clinic visit. Combivent® was withheld for six hours prior to spirometry testing. The recommended dose of Combivent® Inhalation Aerosol is two inhalations four times a day. In this study, subjects were permitted to take additional inhalations as required; however, the total number of inhalations was not to exceed 12 in 24 hours. Subjects were to “test-spray” three times before using for the first time and in cases where the aerosol had not been used for more than 24 hours. […]
smiles,measurement,setting,value
"CCOc1ccc(-c2nc(-c3cccc(C(=O)O)n3)cs2)cc1OCC [Tetomilast, 2-(3,4-diethoxyphenyl)-4-(2-carboxy-6-pyridyl)thiazole]","FVC steady-state (predose) baseline value, Mean (SD)","predose Day 8/23, on tetomilast 50 mg QD, prior to inhaled albuterol",2.67 (0.88) L
same,"FEV1 steady-state (predose) baseline value, Mean","predose Day 8/23, on tetomilast 50 mg QD, prior to inhaled albuterol, Table 3",1.40 L
same,"FVC steady-state (predose) baseline value, Mean","predose Day 8/23, on tetomilast 50 mg QD, prior to inhaled albuterol, Table 4",2.67 L
same,"Estimated Treatment Effect, change from baseline in FEV1 (tetomilast versus placebo)",5 min postdose,-0.01 L
same,"Estimated Treatment Effect, change from baseline in FVC (tetomilast versus placebo)",5 min postdose,0.01 L
same,LS Mean change from baseline in FEV1 (repeated measures ANOVA),5 min postdose,0.16 L
same,LS Mean change from baseline in FVC (repeated measures ANOVA),5 min postdose,0.30 L
same,Mean (SD) change from baseline in FEV1,5 min postdose,0.16 (0.09) L
same,Mean (SD) change from baseline in FVC,5 min postdose,0.27 (0.25) L
same,"Estimated Treatment Effect, change from baseline in FEV1 (tetomilast versus placebo)",25 min postdose,0.03 L
same,"Estimated Treatment Effect, change from baseline in FVC (tetomilast versus placebo)",25 min postdose,0.03 L
same,LS Mean change from baseline in FEV1 (repeated measures ANOVA),25 min postdose,0.19 L
same,LS Mean change from baseline in FVC (repeated measures ANOVA),25 min postdose,0.29 L
same,Mean (SD) change from baseline in FEV1,25 min postdose,0.19 (0.16) L
same,Mean (SD) change from baseline in FVC,25 min postdose,0.29 (0.37) L
same,"Estimated Treatment Effect, change from baseline in FEV1 (tetomilast versus placebo)",35 min postdose,0.03 L
same,"Estimated Treatment Effect, change from baseline in FVC (tetomilast versus placebo)",35 min postdose,0.01 L
same,LS Mean change from baseline in FEV1 (repeated measures ANOVA),35 min postdose,0.24 L
same,LS Mean change from baseline in FVC (repeated measures ANOVA),35 min postdose,0.39 L
same,Mean (SD) change from baseline in FEV1,35 min postdose,0.24 (0.18) L
same,Mean (SD) change from baseline in FVC,35 min postdose,0.39 (0.36) L
same,"Estimated Treatment Effect, change from baseline in FEV1 (tetomilast versus placebo)",55 min postdose,0.05 L
same,"Estimated Treatment Effect, change from baseline in FVC (tetomilast versus placebo)",55 min postdose,0.07 L
same,LS Mean change from baseline in FEV1 (repeated measures ANOVA),55 min postdose,0.27 L
same,LS Mean change from baseline in FVC (repeated measures ANOVA),55 min postdose,0.37 L
same,Mean (SD) change from baseline in FEV1,55 min postdose,0.26 (0.20) L
same,Mean (SD) change from baseline in FVC,55 min postdose,0.36 (0.37) L
same,"Estimated Treatment Effect, change from baseline in FEV1 (tetomilast versus placebo)",65 min postdose,0.06 L
same,"Estimated Treatment Effect, change from baseline in FVC (tetomilast versus placebo)",65 min postdose,0.13 L
same,LS Mean change from baseline in FEV1 (repeated measures ANOVA),65 min postdose,0.30 L
same,LS Mean change from baseline in FVC (repeated measures ANOVA),65 min postdose,0.50 L
same,Mean (SD) change from baseline in FEV1,65 min postdose,0.30 (0.20) L
same,Mean (SD) change from baseline in FVC,65 min postdose,0.50 (0.40) L
same,"Estimated Treatment Effect, change from baseline in FEV1 (tetomilast versus placebo)",85 min postdose,0.05 L
same,"Estimated Treatment Effect, change from baseline in FVC (tetomilast versus placebo)",85 min postdose,0.05 L
same,LS Mean change from baseline in FEV1 (repeated measures ANOVA),85 min postdose,0.31 L
same,LS Mean change from baseline in FVC (repeated measures ANOVA),85 min postdose,0.45 L
same,Mean (SD) change from baseline in FEV1,85 min postdose,0.31 (0.20) L
same,Mean (SD) change from baseline in FVC,85 min postdose,0.45 (0.39) L
same,"Estimated Treatment Effect, change from baseline in FEV1 (tetomilast versus placebo)",95 min postdose,0.05 L
same,"Estimated Treatment Effect, change from baseline in FVC (tetomilast versus placebo)",95 min postdose,0.12 L
same,LS Mean change from baseline in FEV1 (repeated measures ANOVA),95 min postdose,0.34 L
same,LS Mean change from baseline in FVC (repeated measures ANOVA),95 min postdose,0.53 L
same,Mean (SD) change from baseline in FEV1,95 min postdose,0.34 (0.21) L
same,Mean (SD) change from baseline in FVC,95 min postdose,0.53 (0.42) L
same,"Estimated Treatment Effect, change from baseline in FEV1 (tetomilast versus placebo)",115 min postdose,0.05 L
same,"Estimated Treatment Effect, change from baseline in FVC (tetomilast versus placebo)",115 min postdose,0.11 L
same,LS Mean change from baseline in FEV1 (repeated measures ANOVA),115 min postdose,0.33 L
same,LS Mean change from baseline in FVC (repeated measures ANOVA),115 min postdose,0.51 L
same,Mean (SD) change from baseline in FEV1,115 min postdose,0.33 (0.20) L
same,Mean (SD) change from baseline in FVC,115 min postdose,0.51 (0.48) L
same,"Estimated Treatment Effect, change from baseline in FEV1 (tetomilast versus placebo)",175 min postdose,0.06 L
same,"Estimated Treatment Effect, change from baseline in FVC (tetomilast versus placebo)",175 min postdose,0.07 L
same,LS Mean change from baseline in FEV1 (repeated measures ANOVA),175 min postdose,0.34 L
same,LS Mean change from baseline in FVC (repeated measures ANOVA),175 min postdose,0.50 L
same,Mean (SD) change from baseline in FEV1,175 min postdose,0.34 (0.21) L
same,Mean (SD) change from baseline in FVC,175 min postdose,0.50 (0.38) L
same,"Estimated Treatment Effect, change from baseline in FEV1 (tetomilast versus placebo)",235 min postdose,0.04 L
same,"Estimated Treatment Effect, change from baseline in FVC (tetomilast versus placebo)",235 min postdose,0.01 L
same,LS Mean change from baseline in FEV1 (repeated measures ANOVA),235 min postdose,0.32 L
same,LS Mean change from baseline in FVC (repeated measures ANOVA),235 min postdose,0.39 L
same,Mean (SD) change from baseline in FEV1,235 min postdose,0.32 (0.25) L
same,Mean (SD) change from baseline in FVC,235 min postdose,0.40 (0.50) L
same,"Estimated Treatment Effect, change from baseline in FEV1 (tetomilast versus placebo)",295 min postdose,0.03 L
same,"Estimated Treatment Effect, change from baseline in FVC (tetomilast versus placebo)",295 min postdose,0.11 L
same,LS Mean change from baseline in FEV1 (repeated measures ANOVA),295 min postdose,0.23 L
same,LS Mean change from baseline in FVC (repeated measures ANOVA),295 min postdose,0.35 L
same,Mean (SD) change from baseline in FEV1,295 min postdose,0.23 (0.26) L
same,Mean (SD) change from baseline in FVC,295 min postdose,0.35 (0.50) L
same,"Estimated Treatment Effect, change from baseline in FEV1 (tetomilast versus placebo)",355 min postdose,0.11 L
same,"Estimated Treatment Effect, change from baseline in FVC (tetomilast versus placebo)",355 min postdose,0.17 L
same,LS Mean change from baseline in FEV1 (repeated measures ANOVA),355 min postdose,0.23 L
same,LS Mean change from baseline in FVC (repeated measures ANOVA),355 min postdose,0.32 L
same,Mean (SD) change from baseline in FEV1,355 min postdose,0.23 (0.22) L
same,Mean (SD) change from baseline in FVC,355 min postdose,0.32 (0.43) L
